Values of other authors as cited in patent publication US20050203062A1, “Use of tagatose in laxatives” (Spherix Incorporated, priority 2002, published 2005).

How the values were obtained:
[1] = amounts approaching 30 or 40 grams per day
Type 2 diabetes = conditions: clinical trials

SMILES: O=C(CO)[C@@H](O)[C@@H](O)[C@H](O)CO [tagatose, D-tagatose]
- rise in blood glucose (blood glucose; after tagatose itself): does not produce a rise in blood glucose
- rise in blood glucose from subsequent intake of glucose-producing foods (blood glucose; subsequent intake of glucose-producing foods): blunts the rise in blood glucose
- laxation effect [1]: known to have a Taxation effect
- treatment of Type 2 diabetes (Type 2 diabetes): effective treatment for Type 2 diabetes
